{"source": "ChEMBL document CHEMBL4706484", "about": "“Apigenin-rivastigmine hybrids as multi-target-directed liagnds for the treatment of Alzheimer's disease” (Eur J Med Chem, 2020)", "key": {"[1]": {"assay": "Acute toxicity in Kunming mouse assessed as hypokinesia at 2000 mg/kg", "type": "organism-based", "conditions": "in vivo"}, "[2]": {"target": "T1, Cholinesterase (Homo sapiens, UniProt P06276)", "T1 sequence (P06276 whole entry)": "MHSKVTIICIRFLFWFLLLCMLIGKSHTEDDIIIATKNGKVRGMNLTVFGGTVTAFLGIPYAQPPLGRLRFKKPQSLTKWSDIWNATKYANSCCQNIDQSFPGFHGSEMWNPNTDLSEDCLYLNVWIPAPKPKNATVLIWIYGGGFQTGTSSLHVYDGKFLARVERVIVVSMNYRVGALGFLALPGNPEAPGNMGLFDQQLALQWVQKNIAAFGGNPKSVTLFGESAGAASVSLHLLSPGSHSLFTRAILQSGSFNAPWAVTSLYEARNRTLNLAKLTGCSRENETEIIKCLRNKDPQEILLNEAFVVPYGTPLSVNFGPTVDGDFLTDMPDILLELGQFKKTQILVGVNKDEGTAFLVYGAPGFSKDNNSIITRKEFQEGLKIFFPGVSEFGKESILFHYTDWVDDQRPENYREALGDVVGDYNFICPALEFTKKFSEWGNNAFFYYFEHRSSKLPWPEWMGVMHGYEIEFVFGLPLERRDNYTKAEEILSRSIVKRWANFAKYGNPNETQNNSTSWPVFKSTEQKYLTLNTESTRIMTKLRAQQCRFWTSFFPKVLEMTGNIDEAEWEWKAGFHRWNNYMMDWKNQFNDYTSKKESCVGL", "assay": "Pseudo-irreversible inhibition of human serum BChE assessed as enzyme recovery activity at 0.1 times IC50 measured at 240 mins using diluted compound relative to basal level", "type": "cell-free", "set-up": "scale not given: the % may be the effect or the level left"}, "[3]": {"assay": "Acute toxicity in 2 dpf zebrafish assessed as abnormal trunk at 1.39 to 12.5 ug/ml measured after 3 days", "set-up": "species or system Danio rerio", "conditions": "in vivo, 72 h, dose 1.39-12.5 µg/ml, time 3 day"}, "[4]": {"assay": "Drug metabolism in human liver microsomes assessed as metabolite formation by UPLC-MS/MS analysis", "type": "ADME, Microsome"}, "[5]": {"assay": "Acute toxicity in Kunming mouse assessed as abnormal behavior at 1000 mg/kg", "type": "organism-based", "conditions": "in vivo"}, "[6]": {"species": "Danio rerio", "assay": "Antialzheimer activity against 3 dpf zebrafish model of AlCl3-induced AD assessed as motility by measuring efficacy on speed change at 4.2 ug/ml relative to control", "type": "functional", "conditions": "dose 4.2 µg/ml"}, "[7]": {"target": "T1, Cholinesterase", "assay": "Pseudo-irreversible inhibition of human serum BChE assessed as enzyme recovery activity at 0.1 times IC50 measured immediately using diluted compound", "type": "cell-free", "set-up": "scale not given: the % may be the effect or the level left"}, "[8]": {"assay": "Metal chelating activity assessed as Zn2+-compound complex formation at 37.5 uM in presence of 37.5 uM ZnCl2 by UV-Vis spectrophotometric analysis"}, "[9]": {"assay": "Cytotoxicity against human L02 cells assessed as cell viability at 6.25 uM measured after 72 hrs by MTT assay relative to control", "type": "cell-based", "conditions": "read-out: Activity"}, "[10]": {"species": "Danio rerio", "assay": "Antialzheimer activity against 3 dpf zebrafish model of AlCl3-induced AD assessed as motility by measuring efficacy on speed change at 12.5 ug/ml relative to control", "type": "functional", "conditions": "dose 12.5 µg/ml"}, "[11]": {"system": "PC-12", "assay": "Neuroprotective activity against H2O2-induced cell injury in rat PC-12 cells assessed as cell viability at 10 uM preincubated for 2 hrs followed by H2O2 addition and measured after 24 hrs by MTT assay (reference value: 53.8 %)", "type": "functional", "conditions": "time 26 hrs, read-out: Activity"}, "[12]": {"system": "PC-12", "assay": "Cytotoxicity against rat PC-12 cells assessed as reduction in cell viability <= 100 uM measured after 48 hrs by MTT assay", "type": "cell-based", "conditions": "pc-12, 48 h"}, "[13]": {"assay": "Metal chelating activity assessed as Al3+-compound complex formation by measuring absorption wavelength at 37.5 uM in presence of 37.5 uM AlCl3 by UV-Vis spectrophotometric analysis"}, "[14]": {"assay": "Acute toxicity in 2 dpf zebrafish assessed as abnormal liver size at 1.39 to 12.5 ug/ml measured after 3 days", "set-up": "species or system Danio rerio", "conditions": "in vivo, 72 h, dose 1.39-12.5 µg/ml, time 3 day"}, "[15]": {"assay": "Acute toxicity in 2 dpf zebrafish assessed as pericardial edema at 1.39 to 12.5 ug/ml measured after 3 days", "set-up": "species or system Danio rerio", "conditions": "in vivo, 72 h, dose 1.39-12.5 µg/ml, time 3 day"}, "[16]": {"species": "Danio rerio", "assay": "Antialzheimer activity against 3 dpf zebrafish model of AlCl3-induced AD assessed as efficacy on motility distance at 1.4 ug/ml relative to control", "type": "functional", "conditions": "dose 1.4 µg/ml"}, "[17]": {"target": "Butyrylcholinesterase (Rattus norvegicus, UniProt Q9JKC1)", "sequence (Q9JKC1 whole entry)": "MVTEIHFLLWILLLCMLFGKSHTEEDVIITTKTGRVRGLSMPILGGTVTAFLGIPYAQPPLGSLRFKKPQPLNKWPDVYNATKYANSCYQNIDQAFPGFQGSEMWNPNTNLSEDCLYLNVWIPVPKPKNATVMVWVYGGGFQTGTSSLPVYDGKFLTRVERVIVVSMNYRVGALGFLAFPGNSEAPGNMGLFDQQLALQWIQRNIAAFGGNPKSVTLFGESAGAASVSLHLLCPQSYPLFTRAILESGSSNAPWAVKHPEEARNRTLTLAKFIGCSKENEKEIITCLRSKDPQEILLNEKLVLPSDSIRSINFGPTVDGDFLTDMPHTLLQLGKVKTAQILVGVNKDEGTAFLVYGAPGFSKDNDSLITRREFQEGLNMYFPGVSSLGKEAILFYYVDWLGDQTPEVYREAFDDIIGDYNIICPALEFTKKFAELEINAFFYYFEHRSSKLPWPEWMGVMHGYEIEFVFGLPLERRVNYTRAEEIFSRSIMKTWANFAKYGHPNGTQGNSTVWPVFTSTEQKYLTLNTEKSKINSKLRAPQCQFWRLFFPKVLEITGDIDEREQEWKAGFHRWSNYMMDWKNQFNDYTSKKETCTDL", "assay": "Inhibition of rat serum BChE using acetylthiocholine iodide as substrate measured after 15 mins by Ellman's method", "type": "cell-free"}, "[18]": {"species": "Danio rerio", "assay": "Antialzheimer activity against 3 dpf zebrafish model of AlCl3-induced AD assessed as motility by measuring change in speed at 4.2 ug/ml (reference value: 1.05 mm/s)", "type": "functional", "conditions": "dose 4.2 µg/ml"}, "[19]": {"system": "Mus musculus", "assay": "Antialzheimer activity in scopolamine-induced Kunming mouse model of memory impairment assessed as GC bases ratio (QC data) in brain hippocampus at 10 mg/kg by illumina sequencing method (reference value: 53.64 %)", "type": "functional"}, "[20]": {"assay": "Drug metabolism in rat liver microsomes assessed as metabolite formation by UPLC-MS/MS analysis", "type": "ADME, Microsome"}, "[21]": {"species": "Danio rerio", "assay": "Protection against amyloid beta (1 to 40 residues)-induced vascular injury in transgenic zebrafish assessed as vascular injury rate at 12.5 ug/ml (reference value: 73.3 %)", "type": "functional", "conditions": "dose 12.5 µg/ml"}, "[22]": {"system": "Mus musculus", "assay": "Reversal of scopolamine-induced Kunming mouse model of memory impairment assessed as spontaneous alteration at 20 mg/kg by Y-maze test (reference value: 41.6 %)", "type": "functional"}, "[23]": {"species": "Danio rerio", "assay": "Antialzheimer activity against 3 dpf zebrafish model of AlCl3-induced AD assessed as change in motility distance at 12.5 ug/ml (reference value: 5204 mm)", "type": "functional", "conditions": "dose 12.5 µg/ml"}, "[24]": {"species": "Danio rerio", "assay": "Antialzheimer activity against 3 dpf zebrafish model of AlCl3-induced AD assessed as change in motility distance at 1.4 ug/ml (reference value: 5204 mm)", "type": "functional", "conditions": "dose 1.4 µg/ml"}, "[25]": {"species": "Danio rerio", "assay": "Antialzheimer activity against 3 dpf zebrafish model of AlCl3-induced AD assessed as motility by measuring change in speed at 1.4 ug/ml (reference value: 1.05 mm/s)", "type": "functional", "conditions": "dose 1.4 µg/ml"}, "[26]": {"species": "Danio rerio", "assay": "Antialzheimer activity against 3 dpf zebrafish model of AlCl3-induced AD assessed as change in motility distance at 4.2 ug/ml (reference value: 5204 mm)", "type": "functional", "conditions": "dose 4.2 µg/ml"}, "[27]": {"system": "Mus musculus", "assay": "Antialzheimer activity in scopolamine-induced Kunming mouse model of memory impairment assessed as total reads in brain hippocampus at 10 mg/kg by illumina sequencing method (reference value: 100 %)", "type": "functional"}, "[28]": {"assay": "Acute toxicity in 2 dpf zebrafish assessed as effect on liver at 1.39 to 12.5 ug/ml measured after 3 days", "set-up": "species or system Danio rerio", "conditions": "in vivo, 72 h, dose 1.39-12.5 µg/ml, time 3 day"}, "[29]": {"assay": "Metal chelating activity assessed as Fe2+-compound complex formation at 37.5 uM in presence of 37.5 uM FeSO4 by UV-Vis spectrophotometric analysis"}}, "note": "Activity calls are given as the source filed them. No cut-off for these calls is given here.", "data": [{"compound": "CCN(C)C(=O)Oc1ccc(-c2cc(=O)c3c(O)cc(OC(=O)N(C)CC)cc3o2)cc1", "values": [{"measurement": "Activity", "setting": "[1]", "result": "Toxic"}, {"measurement": "Activity", "setting": "[2]", "result": 71.7, "unit": "%"}, {"measurement": "Activity", "setting": "[3]", "result": "Non-Toxic"}, {"measurement": "Drug metabolism", "setting": "[4]", "result": "Metabolite_Detected"}, {"measurement": "Activity", "setting": "[5]", "result": "Non-Toxic"}, {"measurement": "Efficacy", "setting": "[6]", "result": 72, "unit": "%"}, {"measurement": "Activity", "setting": "[7]", "result": 44.8, "unit": "%"}, {"measurement": "Activity", "setting": "[8]", "result": "inactive"}, {"measurement": "viability at 72 h, 6.25 µM", "setting": "[9]", "result": 99, "unit": "%"}, {"measurement": "Efficacy", "setting": "[10]", "result": 87, "unit": "%"}, {"measurement": "viability at 10 µM", "setting": "[11]", "result": 76.7, "unit": "%"}, {"measurement": "Activity", "setting": "[12]", "result": "Non-Toxic"}, {"measurement": "Activity", "setting": "[13]", "result": 384, "unit": "nm"}, {"measurement": "Activity", "setting": "[14]", "result": "Non-Toxic"}, {"measurement": "Activity", "setting": "[15]", "result": "Non-Toxic"}, {"measurement": "Efficacy", "setting": "[16]", "result": 59, "unit": "%"}, {"measurement": "IC50", "setting": "[17]", "result": 12.1, "unit": "µM"}, {"measurement": "Activity", "setting": "[18]", "result": 1.98, "unit": "millimeter/sec"}, {"measurement": "Activity", "setting": "[19]", "result": 60.72, "unit": "%"}, {"measurement": "Drug metabolism", "setting": "[20]", "result": "Metabolite_Detected"}, {"measurement": "Activity", "setting": "[21]", "result": 27, "unit": "%"}, {"measurement": "Activity", "setting": "[22]", "result": 57.1, "unit": "%"}, {"measurement": "Activity", "setting": "[23]", "result": 6733, "unit": "mm"}, {"measurement": "Activity", "setting": "[24]", "result": 6432, "unit": "mm"}, {"measurement": "Activity", "setting": "[25]", "result": 1.8, "unit": "millimeter/sec"}, {"measurement": "Activity", "setting": "[26]", "result": 6562, "unit": "mm"}, {"measurement": "Activity", "setting": "[27]", "result": 100, "unit": "%"}, {"measurement": "Activity", "setting": "[28]", "result": "Non-Toxic"}, {"measurement": "Activity", "setting": "[29]", "result": "inactive"}]}]}
